Series [1] has as its system MCF-7 human breast cancer cells. The experiment in a line: In vitro antiproliferative assay (CCK-8), MCF-7. The following applies: CCK-8, 48 h, mean of three experiments. Format: cell-based. Here is the method:
(§1) In vitro antiproliferative assay 179 Human breast cancer cell line (MCF -7) and human non-small cell lung 180 carcinoma cell line (A549) were used to determine the antiproliferative of 181 the test compounds by CCK -8 assay. The cells were cultured in RPMI 182 media with 10% fetal bovine serum at 37 °C and 5% CO2 in a humidify 183 environment. In a word, cells were seeded in 96 -well plates 184 (1×10^5 cells/well) and cultured for overnight. […] Finally, 186 cell viability was determined by the CCK -8 method. 187 1.3. […] 190 EGTA) with 1 mM GTP and 5% glycerol. Then the plate was 191 immediately transferred to the spectrophotometer and microtubule 192 polymerization was monitored under 340 nm at 37 °C every 1 min over 193 20 min. […] 196 then the cells were treated with different concentrations of compound 5c 7

In series [2] the test system is A549 human non-small cell lung carcinoma cells. The experiment in a line: In vitro antiproliferative assay (CCK-8), A549. Format: cell-based. Particulars: CCK-8, 48 h, mean of three experiments. The method, then: as §1
Series [3] is described as follows: Cytotoxicity against human normal liver cell line. Format: cell-based. The following applies: LO2 normal liver cells.
The test system of series [4] is tubulin. The experiment in a line: In vitro tubulin polymerisation inhibitory assay (absorbance 340 nm). The following applies: 37 °C, 20 min, read-out: IC50 tubulin polymerisation inhibition. Format: biochemical. Here is the method:
In vitro antiproliferative assay 179 Human breast cancer cell line (MCF -7) and human non-small cell lung 180 carcinoma cell line (A549) were used to determine the antiproliferative of 181 the test compounds by CCK -8 assay. The cells were cultured in RPMI 182 media with 10% fetal bovine serum at 37 °C and 5% CO2 in a humidify 183 environment. In a word, cells were seeded in 96 -well plates 184 (1×10^5 cells/well) and cultured for overnight. […] Finally, 186 cell viability was determined by the CCK -8 method. 187 1.3. […] 190 EGTA) with 1 mM GTP and 5% glycerol. Then the plate was 191 immediately transferred to the spectrophotometer and microtubule 192 polymerization was monitored under 340 nm at 37 °C every 1 min over 193 20 min.

Series [5] concerns MCF-7 cancer cells. As to the kind of experiment: Cell cycle assay by flow cytometry (PI). Format: cell-based, human. Particulars: 24 h. The method, then: Due to microtubules play an important role in eukaryotic cell division, tubulin polymerisation inhibitors can disrupt regulated cell cycle distribution and block the cell cycle in G2/M phase [21]^,[29]. Therefore, the effect of compound 5c on the cell cycle of MCF-7 cancer cells was evaluated by using flow cytometry. […] 172 51.01, 56.22, 60.63, 107.33, 125.00, 125.21, 125.24, 127.40, 128.17, […] HRMS (ESI) calcd for [M+Na] + 175 C26H24N2NaO7S+: 531.1196 found 531.1162. Elemental analysis for 176 C26H24N2O7S: C, 61.41; H, 4.76; N, 5.51; S, 6.30 found C, 61.52; H, 177 4.702; N, 5.21; S, 6.100. […] In vitro antiproliferative assay 179 Human breast cancer cell line (MCF -7) and human non-small cell lung 180 carcinoma cell line (A549) were used to determine the antiproliferative of 181 the test compounds by CCK -8 assay. The cells were cultured in RPMI 182 media with 10% fetal bovine serum at 37 °C and 5% CO2 in a humidify 183 environment. In a word, cells were seeded in 96 -well plates 184 (1×10^5 cells/well) and cultured for overnight. After incubation, the cells 185 were treated with test compounds and positive control for 48 h. Finally, 186 cell viability was determined by the CCK -8 method. 187 1.3. In vitro tubulin polymerization inhibitory assay 188 Tubulin protein was mixed with different concentrations of compound 5c […] 190 EGTA) with 1 mM GTP and 5% glycerol. Then the plate was 191 immediately transferred to the spectrophotometer and microtubule 192 polymerization was monitored under 340 nm at 37 °C every 1 min over 193 20 min. […] Cell cycle assay 195 MCF-7 cells were seeded into 6-well plates and incubated for 24 h, and 196 then the cells were treated with different concentrations of compound 5c 7 page 8: 197 for 24 h. After incubation, the cells were harvested by centrifugation, and 198 fixed in ice-cold 70% ethanol overnight. After removed the ethanol, the 199 cells were incubated with RNase and propidium iodide. Finally, the 200 samples were analyzed by flow cytometry. 201 1.5. Cell apoptosis assay […] 203 then the cells were treated with different concentrations of compound 5c 204 for 24 h. Subsequently, the cells were incubated with Annexin-V/FITC 205 binding buffer and PI staining solution at room temperature. Finally, the 206 stained cells were analyzed using flow cytometry. 207 1.6. Molecular docking 208 Molecular docking studies were performed to investigate the binding […] The 210 three-dimensional (3D) coordinate of tubulin (PDB ID: 1SA0) was 211 downloaded from Protein Data Bank (www.rcsb.org). The 3D structure of 212 the compounds was obtained by ChemBioDraw Ultra 14.0 and 213 ChemBio3D Ultra 14.0 softwares. The AutoDockTools 1.5.6 package was 214 employed to generate the docking input files. The search grid of tubulin 215 was identified as center_x: 118.921, center_y: 89.718, and center_z: 216 5.932 with dimensions size_x: 15, size_y: 15, and size_z: 15. The value 217 of exhaustiveness was set to 20. For Vina docking, the default parameters 218 were used if it was not mentioned. The best-scoring pose as judged by the 219 Vina docking score was chosen and visually analyzed using PyMoL 1.7.6 220 software (www.pymol.org). 221 1.7 Molecular dynamics 222 The Amber 12 1-3 and AmberTools 13 programs were used for MD 223 simulations of the selected docked pose. MBPPS was first prepared by 224 ACPYPE 4, a tool based on ANTECHAMBER 5, 6 for generating 8

Series [6] has as its system MCF-7 cancer cells. The experiment in a line: Annexin V-FITC/PI cell apoptosis assay. Format: cell-based, human. Also on record: Q1 quadrant / Q2 quadrant (upper right, late apoptotic cells) / Q4 quadrant / Q3 quadrant (lower right, early apoptotic cells): unit not given here. The following applies: 24 h. Here is the method:
Since many literatures have reported that tubulin polymerisation inhibitors are able to induce cellular apoptosis [22]^,[30], the Annexin V-FITC/PI assay was carried out to examine the influence of compound 5c on cell apoptosis in MCF-7 cancer cells. […]
201 1.5. Cell apoptosis assay
203 then the cells were treated with different concentrations of compound 5c
204 for 24 h. Subsequently, the cells were incubated with Annexin-V/FITC
205 binding buffer and PI staining solution at room temperature. Finally, the
206 stained cells were analyzed using flow cytometry.
207 1.6. […]

Consider 17 compounds from article PMC8231400, “Synthesis, biological evaluation and molecular docking investigation of new sulphonamide derivatives bearing naphthalene moiety as potent tubulin polymerisation inhibitors” (Journal of Enzyme Inhibition and Medicinal Chemistry, 2021).

In general, IC50 refers to the concentration that inhibits the measured activity by half. For `COc1cc(N(Cc2cccc(F)c2)S(=O)(=O)c2cccc3ccccc23)cc(OC)c1OC` [8c], the IC50 was over 30 µM in series [1] (Homo sapiens, MCF7) and over 30 µM in series [2] (Homo sapiens, A549).

As for `COc1cc(N(Cc2cccc(Br)c2)S(=O)(=O)c2cccc3ccccc23)cc(OC)c1OC` [8f], the IC50 is over 30 µM in series [1] (Homo sapiens, MCF7) and over 30 µM in series [2] (Homo sapiens, A549).

For the compound `COc1ccc(CN(c2cc(OC)c(OC)c(OC)c2)S(=O)(=O)c2cccc3ccccc23)cc1` [5c], the IC50 in series [1] (Homo sapiens, MCF7) is 0.51 ± 0.03 µM; in series [2] (Homo sapiens, A549), 0.33 ± 0.01 µM; in series [3], 12.7 ± 3.26 µM; in series [4] it was 2.8 µM. Moreover, the G1 population in series [5] (MCF-7, 0.125 μM) was determined as 44.63%; in series [5] (MCF-7, 0.25 μM), 6.61%; in series [5] (MCF-7, 0.50 μM) it was 6.89%. Further, the G2/M population is 30.77% in series [5] (MCF-7, 0.125 μM); 57.50% in series [5] (MCF-7, 0.25 μM); 82.22% in series [5] (MCF-7, 0.5 µM). Moreover, the S population in series [5] (MCF-7, 0.125 μM) was 24.59%; in series [5] (MCF-7, 0.25 μM) it was 35.89%; in series [5] (MCF-7, 0.50 μM), 10.89%. Moreover, the Q1 quadrant in series [6] (MCF-7, 0.125 μM) is recorded as 0.88; in series [6] (MCF-7, 0.25 μM) it was 0.77; in series [6] (MCF-7, 0.50 μM), 0.58. The “Q2 quadrant (upper right, late apoptotic cells)” value in series [6] (MCF-7, 0.125 μM) was 11.3; in series [6] (MCF-7, 0.25 μM), 12.6; in series [6] (MCF-7, 0.50 μM), 17.7. Also, the “Q3 quadrant (lower right, early apoptotic cells)” value in series [6] (MCF-7, 0.125 μM) was 7.37; in series [6] (MCF-7, 0.25 μM), 20.5; in series [6] (MCF-7, 0.50 μM), 32.6. Also, the Q4 quadrant stood at 80.4 in series [6] (MCF-7, 0.125 μM); 66.1 in series [6] (MCF-7, 0.25 μM); 49.2 in series [6] (MCF-7, 0.50 μM). The “total numbers of early and late apoptotic cells” value in series [6] (MCF-7, 0.125 μM) stood at 18.67%; in series [6] (MCF-7, 0.25 μM), 33.1%; in series [6] (MCF-7, 0.5 µM) it was 50.3%.

With `COc1ccc(CN(c2cc(OC)c(OC)c(OC)c2)S(=O)(=O)c2ccc(C)cc2)cc1` [5a], the half-maximal inhibitory concentration (IC50) amounted to 3.64 ± 0.25 µM in series [1] (Homo sapiens, MCF7) and 5.34 ± 0.31 µM in series [2] (Homo sapiens, A549).

Take `COc1cc(N(Cc2ccc(Cl)cc2)S(=O)(=O)c2cccc3ccccc23)cc(OC)c1OC` [8e]: the half-inhibitory concentration (IC50) is 15.6 ± 0.34 µM in series [1] (Homo sapiens, MCF7) and 14.4 ± 0.8 µM in series [2] (Homo sapiens, A549).

In the case of `COc1cccc(CN(c2cc(OC)c(OC)c(OC)c2)S(=O)(=O)c2cccc3ccccc23)c1` [8a], the IC50 was 20 ± 0.71 µM in series [1] (Homo sapiens, MCF7) and over 30 µM in series [2] (Homo sapiens, A549).

`COc1cc(N(Cc2ccc(F)cc2)S(=O)(=O)c2cccc3ccccc23)cc(OC)c1OC` [8g]: the IC50 is over 30 µM in series [1] (Homo sapiens, MCF7) and over 30 µM in series [2] (Homo sapiens, A549).

Turning to `COc1ccc(CN(c2cc(OC)c(OC)c(OC)c2)S(=O)(=O)c2ccc3ccccc3c2)cc1` [5d], the IC50 was 5.72 ± 0.18 µM in series [1] (Homo sapiens, MCF7) and over 30 µM in series [2] (Homo sapiens, A549).

Turning to `COc1ccc(CN(c2cc(OC)c(OC)c(OC)c2)S(=O)(=O)c2ccc(OC)cc2)cc1` [5e], the IC50 in series [1] (Homo sapiens, MCF7) came to 0.87 ± 0.05 µM; in series [2] (Homo sapiens, A549), 0.62 ± 0.04 µM.

For the compound `N.N.[Cl][Pt][Cl]` [Cisplatin, reference compound], the IC50 is 11.2 ± 0.75 µM in series [1] and 4.92 ± 0.46 µM in series [2].

`COc1ccc(CN(c2cc(OC)c(OC)c(OC)c2)S(=O)(=O)c2ccccc2)cc1` [5b]: the concentration for half-maximal inhibition (IC50) is over 30 µM in series [1] (Homo sapiens, MCF7) and over 30 µM in series [2] (Homo sapiens, A549).

Consider `COc1cc(N(Cc2ccccc2[N+](=O)[O-])S(=O)(=O)c2cccc3ccccc23)cc(OC)c1OC` [8i], for which the IC50 is over 30 µM in series [1] (Homo sapiens, MCF7) and 4.76 ± 0.31 µM in series [2] (Homo sapiens, A549).

For the compound `COc1cc(N(Cc2ccc(C#N)cc2)S(=O)(=O)c2cccc3ccccc23)cc(OC)c1OC` [8h], the concentration for half-maximal inhibition (IC50) was over 30 µM in series [1] (Homo sapiens, MCF7) and over 30 µM in series [2] (Homo sapiens, A549).

Turning to `COc1cc(N(Cc2ccc(Br)cc2)S(=O)(=O)c2cccc3ccccc23)cc(OC)c1OC` [8d], the IC50 was 8.02 ± 0.58 µM in series [1] (Homo sapiens, MCF7) and over 30 µM in series [2] (Homo sapiens, A549).

Turning to `O=c1[nH]cc(F)c(=O)[nH]1` [5-Fu, 5-fluorouracil, reference compound], the IC50 was 11.6 ± 0.6 µM in series [1] (Homo sapiens, MCF7) and 2.75 ± 0.31 µM in series [2] (Homo sapiens, A549).

As to `COc1ccc(/C=C\c2cc(OC)c(OC)c(OC)c2)cc1O` [CA-4, combretastatin A-4, reference compound], the IC50 came out at 5.55 ± 0.11 µM in series [1] (Homo sapiens, MCF7) and 0.029 ± 0.004 µM in series [2] (Homo sapiens, A549).

Regarding `COc1cc(N(Cc2ccc(C)cc2)S(=O)(=O)c2cccc3ccccc23)cc(OC)c1OC` [8b], the IC50 in series [1] (Homo sapiens, MCF7) worked out at 2.2 ± 0.19 µM; in series [2] (Homo sapiens, A549) it was 1.29 ± 0.19 µM.
